Earlier results, collected in patent publication US11433115B2, “Glycopeptide antibiotics liquid formulations and methods and uses thereof” (SOMERSET THERAPEUTICS, LLC, priority 2020, dated 2022).
Read-outs that look alike come from different tables or passages of the source. Each block holds one compound with its values, some of them ahead of it.

Legend:
[1] = system: rats; conditions: rat, in vivo
[2] = orally-dosed pigs, ˜382 mg/kg
[3] = system: acylases; conditions: via the action of acylases

Compound: CSCCC(NC(C)=O)C(=O)O (racemic) [N-acetyl-DL-methionine]
LD50 ([1]; ip): 6700 mg/kg

Compound: CC(=O)N[C@H](C)C(=O)O [NADA, N-acetyl D-alanine]
embryo-fetal toxicity (animal reproduction studies): caused fetal malformations

hydrolysis to D- and L-methionine [2]: only minimally hydrolyzed
time to peak plasma concentration after dosing [2]: 15 min
Compound: CSCC[C@@H](NC(C)=O)C(=O)O [NADM, N-acetyl-D-methionine]

Compound: CSCC[C@H](NC(C)=O)C(=O)O [NALM, N-acetyl-L-methionine]
hydrolysis to L-methionine and acetic acid [3]: completely hydrolyzed
LD50 ([1]; iv): 435 mg/kg

Compound: polyethylene glycol [PEG 400]
embryo-fetal toxicity (in vivo): caused fetal malformations
